Consider one molecule from US12320798B2, “Diagnostic methods, therapeutic agents and uses thereof” (Metabolon, Inc., priority 2015, dated 2025).

The nature of the assay: 12 week lifestyle plus metformin intervention in IFG subjects. It counts as in vivo, human. Conditions: 12 weeks lifestyle + metformin 2 g/day, 33 IFG subjects. From the text: 33 subjects with IFG underwent a 12 week intervention including both lifestyle (diet and exercise) changes and drug (metformin, dose: 2 g/day) therapy. At baseline, this study was 49% female with a mean age of 54 and mean BMI of 30.9.

On to `CN(C)C(=N)N=C(N)N` [metformin], for which the “% Decrease from baseline, 2hPG” value was found to be 13.0%; the “% Decrease from baseline, FPG” value is given as 9.4%; the “% Decrease from baseline, Weight” value was 6.8%.
